Assay [1] has as its target Mitogen-activated protein kinase 14 (Rattus norvegicus, UniProt P70618). In words: Inhibitory potency evaluated against rat p38 kinase.
For a further assay, the species on record is Rattus norvegicus. Put plainly: Inhibition of secondary paw swelling in rat adjuvant arthritis model […]. Format: functional.

Where only a bound is given, the exact number is not on record here.

The source of these data is ChEMBL document CHEMBL1130598, “Pyrroles and other heterocycles as inhibitors of p38 kinase” (Bioorg Med Chem Lett, 1998).

Mitogen-activated protein kinase 14, sequence (P70618 whole entry): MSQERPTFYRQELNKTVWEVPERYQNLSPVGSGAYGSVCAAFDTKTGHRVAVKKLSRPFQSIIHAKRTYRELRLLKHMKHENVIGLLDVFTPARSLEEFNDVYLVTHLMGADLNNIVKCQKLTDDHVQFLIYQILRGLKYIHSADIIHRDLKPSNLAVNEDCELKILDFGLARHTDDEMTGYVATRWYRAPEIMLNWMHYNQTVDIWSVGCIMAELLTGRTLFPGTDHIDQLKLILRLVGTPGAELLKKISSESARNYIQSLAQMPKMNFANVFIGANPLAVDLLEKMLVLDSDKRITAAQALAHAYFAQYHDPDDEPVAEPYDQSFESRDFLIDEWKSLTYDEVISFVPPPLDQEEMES

Broadly, the IC50 is the concentration that inhibits the measured activity by half. Read a high IC50 as a need for much substance. Consider `N#Cc1ccc(-c2[nH]c(-c3ccccc3)cc2-c2ccncc2)cc1`, for which it took 450 nM to reach half-maximal inhibition in assay [1] (IC50).
For `c1ccc(-c2cc(-c3ccncc3)c(-c3ccoc3)[nH]2)cc1`, 660 nM corresponded to half-maximal inhibition in assay [1] (IC50).
As to `CSc1ccc(-c2cc(-c3ccncc3)c(-c3ccc(F)cc3)[nH]2)cc1`, the IC50 in assay [1] stood at 44 nM.
Turning to `Cc1cnccc1-c1cc(-c2ccc([S+](C)[O-])cc2)[nH]c1-c1ccc(F)cc1` (centres undefined), half-maximal inhibition in assay [1] (IC50) was put at 260 nM.
In turn, `Clc1ccc(-c2[nH]c(-c3ccccc3)cc2-c2ccncc2)cc1Cl` had a 50% inhibitory concentration (IC50) in assay [1] of 30 nM.
In the case of `C[S+]([O-])c1ccc(-n2nc(-c3ccncc3)c(-c3ccc(F)cc3)c2O)cc1` (centres undefined), the IC50 in assay [1] was 83 nM.
`c1ccc(-c2cc(-c3ccncc3)c(-c3cccnc3)[nH]2)cc1` yielded an IC50 in assay [1] of 240 nM.
Turning to `O=C(CCN1CCCCC1)Nc1ccc(-c2cc(-c3ccncc3)c(-c3ccccc3)[nH]2)cc1`, in assay [1], inhibition was half-maximal at 390 nM (IC50).
As for `O=[N+]([O-])c1cccc(-c2cc(-c3ccncc3)c(-c3ccccc3)[nH]2)c1`, the IC50 in assay [1] is 53 nM.
Molecule `c1ccc(-c2cc(-c3ccncc3)c(-c3ccccc3)[nH]2)cc1` displayed an IC50 in assay [1] of 17 nM.
For `CC(C)(C)Oc1ccc(-c2[nH]c(-c3ccccc3)cc2-c2ccncc2)cc1`, the IC50 in assay [1] was more than 1000 nM.
On the same count and under the same terms, as for `C[S+]([O-])c1ccc(-c2cc(-c3ccnc4ccccc34)c(-c3ccc(F)cc3)[nH]2)cc1` (centres undefined), the figure is 114 nM; as for `Fc1ccc(-c2[nH]c(-c3ccccc3)cc2-c2ccncn2)cc1`, 710 nM.
For orientation: Inhibition means the share of the control response that was lost under treatment. As for `Oc1c(-c2ccncc2)c(-c2ccc(F)cc2)nn1-c1ccc(Cl)cc1`, the IC50 in assay [1] came to 500 nM. Besides, the Inhibition in the assay listed under Rattus norvegicus stood at 43%.
In assay [1], `Fc1ccc(-c2cc(-c3ccncc3)c(-c3ccc(F)cc3)[nH]2)cc1` came in with a half-maximal inhibitory concentration (IC50) of 60 nM.
On to `Fc1ccc(-c2cc(-c3ccncc3)c(-c3ccccc3)[nH]2)cc1`, for which, in assay [1], the IC50 is 17 nM.
Turning to `c1ccc(-c2cc(-c3ccncc3)c(-c3cccs3)[nH]2)cc1`, the IC50 in assay [1] stood at 120 nM.
In assay [1], `COc1ccc(OC)c(-c2cc(-c3ccncc3)c(-c3ccc(F)cc3)[nH]2)c1` showed an IC50 of 1700 nM.
With `Fc1cccc(-c2cc(-c3ccncc3)c(-c3ccccc3)[nH]2)c1`, half-maximal inhibition in assay [1] (IC50) required 42 nM.
Molecule `FC(F)(F)c1ccc(-c2[nH]c(-c3ccccc3)cc2-c2ccncc2)cc1` displayed an IC50 in assay [1] of 910 nM.
`Cc1cc(-c2cc(-c3ccc([S+](C)[O-])cc3)[nH]c2-c2ccc(F)cc2)ccn1` (centres undefined) yielded an IC50 in assay [1] of 6 nM.
Molecule `O=C(O)c1ccc(-c2cc(-c3ccncc3)c(-c3ccccc3)[nH]2)cc1` showed an IC50 in assay [1] of 14 nM.
For the molecule `N#Cc1cccc(-c2[nH]c(-c3ccccc3)cc2-c2ccncc2)c1`, the IC50 in assay [1] came out at 53 nM.
Molecule `COc1ccc(-c2cc(-c3ccncc3)c(-c3ccc(F)cc3)[nH]2)cc1` showed an IC50 in assay [1] of 60 nM.
On to `Nc1ccc(-c2cc(-c3ccncc3)c(-c3ccccc3)[nH]2)cc1`, for which the midpoint of inhibition in assay [1], the IC50, lay at 28 nM.
The same measure, in the same setting: as for `Fc1ccc(-c2[nH]c(-c3ccccc3)cc2-c2ccncc2)cc1`, the figure is 12 nM; as for `COc1ccc(OC)c(-c2cc(-c3ccncc3)c(-c3ccccc3)[nH]2)c1`, 5000 nM.
Turning to `Clc1cccc(-c2[nH]c(-c3ccccc3)cc2-c2ccncc2)c1`, in assay [1], the IC50 amounted to 29 nM.
